# Test results as given in US9695155B2, “Herbicidal substituted pyrimidinyloxy benzene compounds” (E. I. DU PONT DE NEMOURS AND COMPANY, priority 2013, dated 2017).
# Legend:
# giant foxtail = assay: Test A preemergence; type: in vivo, Setaria faberii; settings: for Foxtail, Giant plant response rating: 0 to 100 scale, 0 no effect, 100 complete control, approx. 10 days
# Outline: (§1)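 Scoring: eye-based comparison with untreated controls, 0 for no effect through 100 for complete control, at about day 10. Treatments: directed soil spray preemergence; foliar spray postemergence on 2–10 cm plants at the one- to two-leaf stage. Medium: loam soil with sand.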
# morningglory [1] = assay: Test A preemergence; type: in vivo, Ipomoea spp.; settings: for Morningglory plant response rating: 0 to 100 scale, 0 no effect, 100 complete control, approx. 10 days
# Outline: as §1
# velvetleaf [2] = assay: Test A preemergence; type: in vivo, Abutilon theophrasti; settings: for Velvetleaf plant response rating: 0 to 100 scale, 0 no effect, 100 complete control, approx. 10 days
# Outline: as §1
# corn = assay: Test A preemergence; type: in vivo, Zea mays
# Outline: as §1
# large (Lg) crabgrass = assay: Test A postemergence; type: in vivo, Digitaria sanguinalis
# Outline: as §1
# pigweed [3] = assay: Test A postemergence; type: in vivo, Amaranthus retroflexus
# Outline: as §1
# velvetleaf [4] = assay: Test A postemergence; type: in vivo, Abutilon theophrasti
# Outline: as §1
# wheat = assay: Test A postemergence; type: in vivo, Triticum aestivum
# Outline: as §1
# barnyardgrass = assay: Test B flooded paddy test; type: in vivo, Echinochloa crus-galli; settings: Flood, 250 g ai/ha; 0 to 100 scale where 0 is no effect and 100 is complete control
# Outline: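 Seedlings are raised to two leaves, flooded to a depth of 3 cm and dosed by adding the compound to the floodwater. Water level is kept constant, and plants are scored visually versus controls 13–15 days later (0 = no effect, 100 = complete control).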
# Italian ryegrass = assay: Test C postemergence; type: in vivo, Lolium multiflorum; settings: for Plant response rating (0 to 100), Ryegrass, Italian: postemergence; for Plant response rating, Ryegrass, Italian: Postemergence, scale 0 to 100 (0 no effect, 100 complete control)
# Outline: (§2)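 Seeds are planted in blended loam soil and sand and treated preemergence, while seedlings in a peat moss/vermiculite medium receive postemergence sprays at 2 to 18 cm height. All plants stay in the greenhouse for 13 to 15 days before visual comparison with controls on a 0–100 scale.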
# morningglory [5] = assay: Test C postemergence; type: in vivo, Ipomoea coccinea; settings: for Plant response rating (0 to 100), Morningglory: postemergence; for Plant response rating, Morningglory: Postemergence, scale 0 to 100 (0 no effect, 100 complete control)
# Outline: as §2
# pigweed [6] = assay: Test C postemergence; type: in vivo, Amaranthus retroflexus; settings: for Plant response rating (0 to 100), Pigweed: postemergence; for Plant response rating, Pigweed: Postemergence, scale 0 to 100 (0 no effect, 100 complete control)
# Outline: as §2
# kochia = assay: Test C postemergence; type: in vivo, Kochia scoparia; settings: for Plant response rating (0 to 100), Kochia: postemergence; for Plant response rating, Kochia: Postemergence, scale 0 to 100 (0 no effect, 100 complete control)
# Outline: as §2
# [7] = 125 g ai/ha, 0 to 100 scale where 0 is no effect and 100 is complete control
# [8] = 500 g ai/ha, 0 to 100 scale, 0 no effect, 100 complete control
# [9] = 1000 g ai/ha, 0 to 100 scale, 0 no effect, 100 complete control
# [10] = 8 g ai/ha, 0 is no effect, 100 is complete control
# [11] = 16 g ai/ha, 0 is no effect, 100 is complete control
smiles,measurement,setting,value
N#Cc1cccc(Oc2ncc(F)cn2)c1-n1cc(Br)cn1 [Compound 62],"Plant response rating, Foxtail, Giant",giant foxtail; [7],90
same,"Foxtail, Giant plant response rating",giant foxtail; 500 g ai/ha,100
same,"Plant response rating, Morningglory",morningglory [1]; [7],0
same,Morningglory plant response rating,morningglory [1]; 500 g ai/ha,90
same,"Plant response rating, Velvetleaf",velvetleaf [2]; [7],50
same,Velvetleaf plant response rating,velvetleaf [2]; 500 g ai/ha,100
same,"Plant response rating, Corn",corn; [7],0
same,Corn plant response rating,"corn; 500 g ai/ha, 0 to 100 scale, 0 no effect, 100 complete control, approx. 10 days",90
same,"Plant response rating, Crabgrass, Large",large (Lg) crabgrass; [7],90
same,"Plant response rating, Crabgrass, Large",large (Lg) crabgrass; [8],100
same,"Plant response rating, Pigweed",pigweed [3]; [7],100
same,"Plant response rating, Pigweed",pigweed [3]; [8],100
same,"Plant response rating, Velvetleaf",velvetleaf [4]; [7],100
same,"Plant response rating, Velvetleaf",velvetleaf [4]; [8],100
same,"Plant response rating, Wheat",wheat; [7],20
same,"Plant response rating, Wheat",wheat; [8],100
same,"Plant response rating, Barnyardgrass",barnyardgrass,0
same,"Plant response rating (0 to 100), Ryegrass, Italian",Italian ryegrass; 125 g ai/ha,5
same,"Plant response rating (0 to 100), Ryegrass, Italian",Italian ryegrass; 250 g ai/ha,15
same,"Plant response rating, Ryegrass, Italian","Italian ryegrass; 31 g ai/ha, 13 to 15 days",0
same,"Plant response rating, Ryegrass, Italian",Italian ryegrass; 62 g ai/ha,0
same,"Plant response rating (0 to 100), Morningglory",morningglory [5]; 125 g ai/ha,85
same,"Plant response rating (0 to 100), Morningglory",morningglory [5]; 250 g ai/ha,90
same,"Plant response rating, Morningglory","morningglory [5]; 31 g ai/ha, 13 to 15 days",65
same,"Plant response rating, Morningglory",morningglory [5]; 62 g ai/ha,70
same,"Plant response rating (0 to 100), Pigweed",pigweed [6]; 125 g ai/ha,75
same,"Plant response rating (0 to 100), Pigweed",pigweed [6]; 250 g ai/ha,80
same,"Plant response rating, Pigweed","pigweed [6]; 31 g ai/ha, 13 to 15 days",50
same,"Plant response rating, Pigweed",pigweed [6]; 62 g ai/ha,65
same,"Plant response rating (0 to 100), Kochia",kochia; 125 g ai/ha,90
same,"Plant response rating (0 to 100), Kochia",kochia; 250 g ai/ha,95
same,"Plant response rating, Kochia","kochia; 31 g ai/ha, 13 to 15 days",80
same,"Plant response rating, Kochia",kochia; 62 g ai/ha,90
CC(=NO)c1cn(-c2c(Br)cccc2Oc2ncc(Cl)cn2)nn1 [Compound 115],"Foxtail, Giant plant response rating",giant foxtail; 1000 g ai/ha,100
same,Morningglory plant response rating,morningglory [1]; 1000 g ai/ha,50
same,Velvetleaf plant response rating,velvetleaf [2]; 1000 g ai/ha,100
same,"Plant response rating, Corn",corn; [9],60
same,"Plant response rating, Crabgrass, Large",large (Lg) crabgrass; [9],90
same,"Plant response rating, Pigweed",pigweed [3]; [9],100
same,"Plant response rating, Velvetleaf",velvetleaf [4]; [9],100
same,"Plant response rating, Wheat",wheat; [9],90
same,"Plant response rating, Barnyardgrass",barnyardgrass,0
same,"Plant response rating (0 to 100), Ryegrass, Italian",Italian ryegrass; [10],0
same,"Plant response rating (0 to 100), Ryegrass, Italian",Italian ryegrass; [11],0
same,"Plant response rating (0 to 100), Morningglory",morningglory [5]; [10],0
same,"Plant response rating (0 to 100), Morningglory",morningglory [5]; [11],40
same,"Plant response rating (0 to 100), Pigweed",pigweed [6]; [10],15
same,"Plant response rating (0 to 100), Pigweed",pigweed [6]; [11],50
same,"Plant response rating (0 to 100), Kochia",kochia; [10],0
same,"Plant response rating (0 to 100), Kochia",kochia; [11],0
